Entries after “also recorded” stand apart in the source; their conditions may differ.
What was measured:
[1] = system: Hematopoietic cells and bone marrow; assay: Flow cytometry of HSPC and lymphocyte subsets in cryopreserved bone marrow; assay type: cell-based, human
Method: Bone marrow prior to DMSO addition (designated “QC1”) was washed and resuspended at a concentration of 8×10^6 cells/ml in Rinse Media. Cells were aliquoted and mixed with equal volumes of DMSO solutions to yield final concentrations of either 2.5, 5 or 10% DMSO in Rinse Media. A 2.5 ml volume of each preparation was aliquoted in triplicate to 5 ml cryovials. After equilibrating for 5 minutes, the cryovials were placed in a CryoMed Controlled Rate Freezer and frozen using the following program: • Step 1. −1° C./minute to −86° C. • Step 2. −20° C./minute to −150° C. • Step 3. Hold at −150° C. The vials were transferred to LN2 after 5 minutes at −150° C. The following day, cryovials containing cryopreserved cells were thawed in a 37° C. water bath and transferred to a biological safety cabinet after sanitizing with 70% alcohol. The cells were transferred to a centrifuge tube and pelleted. After removing the supernatant, the cells were resuspended in 12.5 ml of Selection Media. The tubes were centrifuged again and the cell pellet was resuspended in final volume of 25 ml of Selection Media. Total cell counts were obtained using a Sysmex Hematology Analyzer. Flow cytometry was performed using non-cryopreserved Hematopoietic cells and bone marrow QC1 sample for comparison. Panel design for flow cytometry with the following panel of conjugated antibodies (see Table 1). Each tube was stained with the viability dye 7-AAD after antibody staining. [table]

[2] = system: Hematopoietic cells and bone marrow; assay: CFU assay of bone marrow after thawing cells cryopreserved in DMSO; assay type: cell-based, human; settings: for BFU-E / CFU-E / CFU-GEMM / CFU-GM / total CFU: after thawing, average score from duplicate wells
Method: Bone marrow prior to DMSO addition (designated “QC1”) was washed and resuspended at a concentration of 8×10^6 cells/ml in Rinse Media. Cells were aliquoted and mixed with equal volumes of DMSO solutions to yield final concentrations of either 2.5, 5 or 10% DMSO in Rinse Media. A 2.5 ml volume of each preparation was aliquoted in triplicate to 5 ml cryovials. After equilibrating for 5 minutes, the cryovials were placed in a CryoMed Controlled Rate Freezer and frozen using the following program: • Step 1. −1° C./minute to −86° C. • Step 2. −20° C./minute to −150° C. • Step 3. Hold at −150° C. The vials were transferred to LN2 after 5 minutes at −150° C. The following day, cryovials containing cryopreserved cells were thawed in a 37° C. water bath and transferred to a biological safety cabinet after sanitizing with 70% alcohol. The cells were transferred to a centrifuge tube and pelleted. After removing the supernatant, the cells were resuspended in 12.5 ml of Selection Media. The tubes were centrifuged again and the cell pellet was resuspended in final volume of 25 ml of Selection Media. Total cell counts were obtained using a Sysmex Hematology Analyzer. CFU assays were also performed. Fresh and as well as previously cryopreserved hematopoietic cells and bone marrow preparations were analyzed by CFU assay. Given the limited sample size, statistical analysis could not be performed.

For C[S+](C)[O-] [DMSO, dimethyl sulfoxide], the “total CD3+ T cells” value ([1]; 2.5% DMSO compared to either 5 or 10%, FIG. 2B) was “reduced”, the “Natural Killer cells (CD3-CD19-CD56+)” value ([1]; 2.5 or 5% DMSO compared with 10%, FIG. 2F) was “highest” and the “percentage of viable CD45LOCD34+ HSPC in thawed products” value ([1]; 5% DMSO compared with 2.5 and 10% DMSO, FIG. 2A) was “highest; also recorded: enhanced”. For the same compound, the “percentage of CD3+CD4-CD8-gd TCR+ gd T cells” value ([1]; 10% DMSO compared to 2.5 and 5%, FIG. 2C) was “lowest”, the “gd T cells, sensitivity to DMSO concentration” value ([1]; across 2.5, 5 and 10% DMSO) was “relatively insensitive” and the “percentage of CD4+CDRA+CCR7+ naïve T cells” value ([1]; across 2.5, 5 and 10% DMSO, FIG. 2D) was “increased with increasing DMSO concentrations; also recorded: lowest with the lower DMSO concentrations”. The “naïve CD8+ T cells” value ([1]; across 2.5, 5 and 10% DMSO, significant between 2.5 and 10%, FIG. 2E) was “trend in decreasing; also recorded: relatively insensitive”, the “percentage of HSPC within the total viable cell population” value ([1]; cryopreserved in 5% DMSO versus fresh, FIG. 1A) was “increased with cryopreservation” and the “total population of T cells (CD3+)” value ([1]; cryopreserved in 5% DMSO versus fresh, FIG. 1B) was “decreased; also recorded: reduced”. The “percentage of gd T cells” value ([1]; cryopreserved in 5% DMSO versus fresh, FIG. 1C) was “significant increase; also recorded: increased with cryopreservation”, the “percentage of CD4+/CD8+CDRA+CCL7+ naïve T cells” value ([1]; cryopreserved in 5% DMSO versus fresh, FIG. 1D and 1E) was “significantly decreased; also recorded: reduced” and the “percentage of NK cells” value ([1]; cryopreserved in 5% DMSO versus fresh, FIG. 1F) was “decreased following cryopreservation”. The CFU potential ([2]; 10% DMSO compared to 2.5 or 5% DMSO, qualitative) was “significantly reduces”, the BFU-E ([2]; cryopreserved in 2.5% DMSO) was 11.5 and the CFU-E ([2]; cryopreserved in 2.5% DMSO) was 7.5. For the same compound, the CFU-GEMM ([2]; cryopreserved in 2.5% DMSO) was 0.5, the CFU-GM ([2]; cryopreserved in 2.5% DMSO) was 7.5 and the “total CFU” value ([2]; cryopreserved in 2.5% DMSO) was 27. For the same compound, the BFU-E ([2]; cryopreserved in 5% DMSO) was 11.5, the CFU-E ([2]; cryopreserved in 5% DMSO) was 6 and the CFU-GEMM ([2]; cryopreserved in 5% DMSO) was 0.5. The CFU-GM ([2]; cryopreserved in 5% DMSO) was 9, the “total CFU” value ([2]; cryopreserved in 5% DMSO) was 27 and the BFU-E ([2]; cryopreserved in 10% DMSO) was 4. The CFU-E ([2]; cryopreserved in 10% DMSO) was 3.5, the CFU-GEMM ([2]; cryopreserved in 10% DMSO) was 0 and the CFU-GM ([2]; cryopreserved in 10% DMSO) was 0. The “total CFU” value ([2]; cryopreserved in 10% DMSO) was 7.5.
